From US12133900B2, “Synthesis and composition of amino acid linking groups conjugated to compounds used for the targeted imaging of tumors” (Purdue Research Foundation, priority 2013, dated 2024)
Entries after “also recorded” stand apart in the source; their conditions may differ.

Tests used:
[1] = system: folate receptor positive KB tumor xenografts; assay: Whole body imaging and tissue biodistribution, KB tumor xenografts; assay type: in vivo, mice; details: for tumor uptake: 0.3 nmol dose i.v.; for non-specific uptake: 60 and 90 nmol doses i.v.
Procedure: (§1) Seven-week-old female nu/nu mice were inoculated subcutaneously with KB cells (1.0×10^6/mouse in folate free RPM11640 medium) on the shoulder. […] […] Whole body imaging (intact tumor) experiments were then performed using a Caliper IVIS Lumina II Imaging Station with Living Image 4.0 software (PerkinElmer Inc, MA). Settings for imaging:—lamp level: medium; excitation: 745 nm; emission: 830 nm; epi illumination; binning: 4 (M), FOV=12.5; f-stop=2; acquisition time=1 s.
(§2) Following whole body imaging, animals were dissected and selected tissues (heart, lung, liver, spleen, kidneys, stomach, small intestine, large intestine, muscle, skin, tumor) were analyzed for fluorescence activity using IVIS imager as before. Settings for imaging: lamp level: medium; excitation: 745 nm; emission: 830 nm; epi illumination; binning: 4 (M), FOV=12.5; f-stop=2; acquisition time=1 s.
as §1, with “shoulder. Growth of the tumors was measured in perpendicular directions every 2 days using a caliper (body weights were monitored on the same schedule), and the volumes of the tumors were calculated as 0.5×L×W^2 (L=longest axis and W=axis perpendicular to L in millimeters).” for “shoulder.”, “ICG (830 nm);” for “830 nm;”
as §2, with “skin, and” for “skin,”, “imaging:—lamp” for “imaging: lamp”, “emission:ICG (830 nm);” for “emission: 830 nm;”
Five-week-old female nu/nu mice were inoculated subcutaneously with KB cells (1.0×10^6/mouse in RPMI medium) on their shoulders. Growth of the tumors was measured in two perpendicular directions every 2 days using a caliper (body weights were monitored on the same schedule), and the volumes of the tumors were calculated as 0.5×L×W^2 (L) longest axis and W) axis perpendicular to L in millimeters). Once tumors reached between 400 and 500 mm3 in volume, animals were treated with folate receptor-targeted NIR dye conjugate (10 nmol) in phosphate buffered saline (100 μL). […]
Animal imaging experiments were performed using a Caliper Ivis Lumina II Imaging Station with Living Image 4.0 software. Settings for imaging Alexa Fluor 647 and DyLight 680 conjugates: lamp level: high; excitation: 605; emission: Cy5.5; epi illumination; binning: (M) 4; FOV=7.5; f-stop=4; acquisition time=1 s. Settings for imaging DyLight 750 and IR800CW conjugates: lamp level: high; excitation: 745; emission: ICG; epi illumination; binning: (M) 4, FOV=12.5; f-stop=4; acquisition time=1 s.
Seven-week-old female nu/nu mice were inoculated subcutaneously with KB cells (1.0×10^6/mouse in folate free RPM11640 medium) on the shoulder. Growth of the tumors was measured in perpendicular directions every 2 days using a caliper (body weights were monitored on the same schedule), and the volumes of the tumors were calculated as 0.5×L×W^2 (L=longest axis and W=axis perpendicular to L in millimeters). Once tumors reached between 400 and 500 mm3 in volume, animals (5 mice/group) were intravenously injected with 10 nmol of OTL-0038 or OTL-0039 in phosphate buffered saline (100 μL). After 2.5 hours, animals were euthanized by CO2 asphyxiation. Whole body imaging (intact tumor) experiments were then performed using a Caliper IVIS Lumina II Imaging Station with Living Image 4.0 software (PerkinElmer Inc, MA). […]

[2] = system: FR-positive M109 tumors; assay: Imaging and biodistribution, M109 metastatic model; assay type: in vivo, mice; details: 2 nmol, 2 h
Procedure: Seven-week-old female nu/nu mice were inoculated subcutaneously with KB (1.0×10^6/mouse in RPM11640 medium), IGROV (5.0×10^6/mouse in 50% high concentrated matrigel+RPM11640 medium), SKOV3 (5.0×10^6/mouse in RPM11640 medium), OVCAR3 (5.0×10^6/mouse in RPM11640 medium), MDA-MB231 (1.0×10^6/mouse in RPM11640 medium), M109 (1.0×10^6/mouse in RPM11640 medium) or A549 cells (2.0×10^6/mouse in RPM11640 medium) on the shoulder. Growth of the tumors was measured in perpendicular directions every 2 days using a caliper (body weights were monitored on the same schedule), and the volumes of the tumors were calculated as 0.5×L×W^2 (L=longest axis and W=axis perpendicular to L in millimeters). Once tumors reached approximately 300-400 mm3 in volume, animals (3-5 mice/group) were intravenously injected with the compound of interest in PBS (for dose escalation in KB tumor model: 0.3-90 nmol, for time dependent in KB tumor model: 2 or 10 nmol, and for general whole body imaging and biodistribution for all tumor models: 2 nmol, in 100 μL in PBS per mouse). […]
Following whole body imaging, animals were dissected and selected tissues (heart, lung, liver, spleen, kidneys, stomach, small intestine, large intestine, muscle, skin, and tumor) were analyzed for fluorescence activity using IVIS imager using same settings as in whole body imaging.

[3] = 10 nmol i.v., 2 h, listed as OTL38
[4] = 10 nmol i.v., 2 h, listed as Pte-Tyr-S0456
[5] = 10 nmol tail vein, live imaging
[6] = dose escalation 0.3-90 nmol i.v.

With `CC1(C)C(/C=C/C2=C(Oc3ccc(C[C@H](NC(=O)c4ccc(NCc5cnc6nc(N)[nH]c(=O)c6n5)cc4)C(=O)[O-])cc3)C(=C/C=C3\N(CCCCS(=O)(=O)[O-])c4ccc(S(=O)(=O)[O-])cc4C3(C)C)/CCC2)=[N+](CCCCS(=O)(=O)[O-])c2ccc(S(=O)(=O)[O-])cc21.[H+].[H+].[H+].[H+]` [OTL-0038, Pte-Tyr-S0456] the tumor uptake [1] was “lower uptake in folate receptor-positive tumors (weak fluorescence intensity)”, the tumor uptake ([1]; listed as OTL38) was “lower uptake in FR-positive tumors (weak fluorescence intensity)” and the “whole body imaging, tissue biodistribution and tumor-to-tissue” value ([1]; 2 nmol dose, 2 h post injection) was “excellent”. For the same compound, the “time in which nonspecific skin tissue uptake clears” value ([1]; 10 nmol) was ≤ 24 h, the “tumor fluorescence intensity, direct comparison” value (“tumor fluorescence intensity” below) ([1]; 10 nmol i.v., 2 h) was “brighter than the mice treated with the other conjugates” and the tumor-to-tissue ratios ([1]; 10 nmol i.v., 2 h) was “excellent tumor-to-tissue ratios except the skin”. The “whole body imaging: accumulation” value ([1]; 10 nmol i.v., 2 h) was “accumulated predominantly in the folate receptor-positive tumors”, the “ex vivo tissue biodistribution” value [1, 3] was “highest fluorescence intensity was observed in FR-positive tumors with no accumulation in the other tissues except the kidneys and skin” and the “whole body imaging: accumulation” value [1, 3] was “accumulated predominantly in the FR positive KB tumors”. For the same compound, the “ex vivo tissue biodistribution” value [1, 4] was “accumulated predominantly in the folate receptor positive tumors with no substantial fluorescence activity in other organs except the kidneys”, the “tumor fluorescence intensity” value [1, 4] was “competitive, in terms of fluorescent brightness, to all folate-NIR conjugates” and the “whole body imaging: accumulation” value [1, 4] was “mainly accumulated in the folate receptor positive tumors and no fluorescence was observed in other tissues”. For the same compound, the “ex vivo tissue biodistribution” value ([1]; 10 nmol i.v., 2.5 h) was “highest fluorescence intensity was observed in FR-positive tumors with no accumulation in the other tissues except the kidneys; also recorded: mainly accumulated in folate receptor positive tumor xenografts and kidneys”, the “tumor fluorescence intensity” value ([1]; 10 nmol i.v., 2.5 h) was “brighter (higher); also recorded: beneficial aspects relative to folate-LS288, folate-IR800, and folate-ZW800 in tumor accumulated fluorescence intensity” and the “tumor-to-normal tissue fluorescence ratios” value ([1]; 10 nmol i.v., 2.5 h) was “excellent tumor-to-normal tissue fluorescence ratios”. For the same compound, the “whole body imaging: accumulation” value ([1]; 10 nmol i.v., 2.5 h) was “accumulated predominantly in the folate receptor positive tumors”, the “time point at which clearing from the skin starts” value [1, 5] was 2 h and the “time to saturate FR” value [1, 5] was 2 to 4 h. For the same compound, the “time to accumulate in FR positive tumor and kidneys” value ([1]; 10 nmol tail vein, live imaging 15 min to 48 h) was ≤ 1 h, the skin fluorescence ([1]; 10 nmol, 24-48 hour time points) was “minimal fluorescence” and the “uptake in sliced (dissected) tumors” value ([1]; 10 nmol, 2 h) was “accumulated homogeneously in all tumor cells”. For the same compound, the “fluorescence intensity in the skin” value ([1]; 10 nmol, 24 h post injection, ImageJ) was “minimal”, the fluorescence in tumor ([1]; 10 nmol, 48 hour time point) was “remains high” and the non-specific uptake [1] was “higher non-specific uptake”. For the same compound, the non-specific uptake ([1]; listed as OTL38) was “higher non-specific uptake in healthy tissues”, the “highest dose to obtain best tumor-to-background ratio” value [1, 6] was 30 nmol and the “lowest dose to obtain good tumor-to-background ratio” value [1, 6] was 1.0 nmol. For the same compound, the kidney uptake ([1]; dose range 0.3-10 nmol) was “higher kidney uptake”, the “tumor uptake and tumor-to-normal tissue ratio” value ([1]; dose range 1.0-30.0 nmol i.v.) was “tumor uptake and excellent tumor-to-normal tissue ratio” and the kidney uptake ([1]; dose range 30-90 nmol) was “less kidney uptake (relative to tumor uptake)”. The tumor-to-normal tissue ratios [2] was “excellent tumor-to-normal tissue ratios” and the “whole body imaging: accumulation” value [2] was “accumulated mainly in the FR-positive M109 tumors metastasize to the liver, lung and spleen”.
